# Laboratory results from US9248584B2, “High-temperature spray drying process and apparatus” (Bend Research, Inc., priority 2010, dated 2016).
# Assays:
# Log P value = assay type: physicochemical
# [1] = Room temperature solubility in methanol; assay type: physicochemical; settings: room temperature (20° C. to 30° C.)
structure (smiles),measurement,setting,value
"CCC(=O)O[C@]1(C(=O)SCF)[C@H](C)C[C@H]2[C@@H]3C[C@H](F)C4=CC(=O)C=C[C@]4(C)[C@@]3(F)[C@@H](O)C[C@@]21C [Active Agent 1, S-(fluoromethyl) 6α,9-difluoro-11β,17-dihydroxy-16α-methyl-3-oxoandrosta-1,4-diene-17β-carbothioate, 17-propionate]",logP,Log P value,3.7
same,solubility in methanol,[1],0.3 wt %
